Data published in US10781224B2, “Bis(oxymethyl)phosphinic acid and biogenic metal salts thereof as regulators of plant growth and development” (priority 2016, dated 2020).

System: winter wheat (Kazan 560 variety)
Experiment: Field study: winter wheat seed treatment and spraying, yield and quality of the grain
Type: in vivo
Settings: for Field germination, % / Grain mass from the main ear / Number of grains in an ear / Viability, % / Yield, dt/ha: winter wheat
Protocol: Field studies were conducted for the BHMPA Mg-salt. The effect of treatment winter wheat seeds (Kazan 560 variety) with BHMPA Mg-salt solutions on the yield and quality of the grain was examined. The field experiment was conducted at a branch of a fallow rotation. The seeds were sowed on Sep. 1, 2015, in an area covering 1.7 hectares of the experimental field located at the experimental base of Tatarstan Research Institute of Agriculture. For comparison, the seeds were treated with the BHMPA Mg-salt solution and the known growth-regulator Melaphen at the same concentrations, optimum for Melaphen.
The experiment was conducted for the following variants: • 1. Control (no seed treatment); • 2. Seed treatment with the BHMPA Mg-salt solution at a 1·10^−7% concentration; • 3. Seed treatment with the BHMPA Mg-salt solution at a 1·10^−7% concentration+spraying with the BHMPA Mg-salt solution at a 1·10^−8% concentration upon vegetation during spring tillering and earing phases; • 4. Seed treatment with the growth regulator Melaphen at a 1·10^−7% concentration; • 5. Seed treatment with Melaphen at a 1·10^−7% concentration and spraying with Melaphen at a 1·10^−8% concentration upon vegetation during spring tillering and earing phases.
The seeds were treated with the experimental compounds together with a seed disinfectant at a rate of 10 ml/T. The vegetating plants were treated at a rate of 5 ml/ha. Identical field operations appropriate for that zone as well as plant protection measures against weeds and disease, were applied in all cases.
Results of field experiments with BHMPA Mg-salt as the main growth-regulating component of said pre-sowing seed treatment combined with additional treatment of winter wheat plants with other claimed BHMPA salts, are presented in Table XXXV.

[1] = seed treatment 1 · 10^−7% + spraying plants with the same substance 1 · 10^−8%

## O=P([O-])(CO)CO.O=P([O-])(CO)CO.[Mg+2] [Mg-salt, Magnesium BHMPA Salt]
field, seed treatment plus additional spraying during spring tillering and earing phases
  plant viability: up to 61%
field, seeds treated at 1·10^−7% and plants sprayed with 1·10^−8%, control 21.7 dt/ha
  yield of winter wheat: 30.7 dt/ha
Winter wheat Kazan 560, field, pre-sowing seed treatment, control 41%
  plant viability: up to 55%
Winter wheat Kazan 560, field, pre-sowing seed treatment, control 67%
  germination rate (field): up to 70%
Seed treatment 1 · 10^−7%
  Field germination, %: 70%
  Grain mass from the main ear: 1.1 g
  Number of grains in an ear: 31
  Viability, %: 55%
  Yield, dt/ha: 29.2 dt/ha
[1]
  Field germination, %: 70%
  Grain mass from the main ear: 1.1 g
  Number of grains in an ear: 32
  Viability, %: 61%
  Yield, dt/ha: 30.7 dt/ha
